Measured values taken from patent US11076595B2, “1-(n,n-disubstituted carbamoyl) 4-(substituted sulfonyl)triazolin-5-one derivative, 4-(n,n-disubstituted carbamoyl) 1-(substituted sulfonyl)triazolin-5-one derivative, and herbicide containing said derivative as active ingredient” (HOKKO CHEMICAL INDUSTRY CO., LTD., priority 2017, dated 2021).

What was measured:
Assay type in all cases: in vivo
crabgrass [1] = assay: Test Example 4: herbicidal effect test by foliage treatment in upland field; conditions: upland field foliage treatment 7 days after sowing; 120 g/10a; evaluated 14 days after treatment
Experimental: (§1) This test was performed with two replications per one formulation concentration plot, and 14 days after the formulation treatments, the weed suppression rate (%) was determined according to the following equation (Math. 1). Weed suppression rate (%)=(1−an average dry weight (g) of plants in treated plots/an average dry weight (g) of plants in untreated plots)×100 [Math. 1]
(§2) A pot having a size of 36 cm^2 was filled with field soil (alluvial soil) and after uniformly mixing the soil of the surface layer of 1 cm with 20 grains of each weed seed of crabgrass, Echinochloa crus-galli, Chenopodium album and Amaranthus viridis, the surface layer was pressed lightly. Seven days after the sowing, an emulsifiable concentrate prepared according to Formulation Example 5 by using the compound shown in Table 8 below was diluted with water, and the water-diluted formulation was sprayed on the soil surface at a ratio of 100 liter per 10 are. The application rate of the active ingredient, by conversion, corresponded to 120 g per 10 are. Fourteen days after the formulation treatment, the herbicidal effect was evaluated by the same criteria as in Test Example 1.

Chenopodium album [2] = assay: as above; conditions: upland field foliage treatment 7 days after sowing; 120 g/10a; evaluated 14 days after treatment
Experimental: as §1, §2

Echinochloa crus-galli [3] = assay: as above; conditions: upland field foliage treatment 7 days after sowing; 120 g/10a; evaluated 14 days after treatment
Experimental: as §1, §2

Amaranthus viridis [4] = assay: as above; conditions: upland field foliage treatment 7 days after sowing; 120 g/10a; evaluated 14 days after treatment
Experimental: as §1, §2

crabgrass [5] = assay: Test Example 3: herbicidal effect test by soil treatment in upland field; conditions: upland field soil treatment 1 day after sowing; 120 g/10a; evaluated 14 days after treatment
Experimental: as §1
as §2, with “One day” for “Seven days”, “7” for “8”

Chenopodium album [6] = assay: as above; conditions: upland field soil treatment 1 day after sowing; 120 g/10a; evaluated 14 days after treatment
Experimental: as §1
as §2, with “One day” for “Seven days”, “7” for “8”

Echinochloa crus-galli [7] = assay: as above; conditions: upland field soil treatment 1 day after sowing; 120 g/10a; evaluated 14 days after treatment
Experimental: as §1
as §2, with “One day” for “Seven days”, “7” for “8”

Amaranthus viridis [8] = assay: as above; conditions: upland field soil treatment 1 day after sowing; 120 g/10a; evaluated 14 days after treatment
Experimental: as §1
as §2, with “One day” for “Seven days”, “7” for “8”

Lindernia pyxidaria [9] = assay: Test Example 2: herbicidal effect test by treatment during growing period in paddy field; conditions: treatment 7 days after sowing, 120 g/10a, evaluated 14 days after treatment
In short: (§3)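 Read-out is weed suppression (%), 1 − mean dry weight treated/untreated ×100, taken 14 days after treatment with duplicate plots. Treatment: water-diluted emulsifiable concentrate added dropwise to flooded paddy-soil pots 7 days post-sowing at 120 g active ingredient per 10 are.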

Scirpus juncoides [10] = assay: as above; conditions: treatment 7 days after sowing, 120 g/10a, evaluated 14 days after treatment
In short: as §3

Echinochloa crus-galli [11] = assay: as above; conditions: treatment 7 days after sowing, 120 g/10a, evaluated 14 days after treatment
In short: as §3

Monochoria vaginalis [12] = assay: as above; conditions: treatment 7 days after sowing, 120 g/10a, evaluated 14 days after treatment
In short: as §3

Lindernia pyxidaria [13] = assay: Test Example 1: herbicidal effect test by soil treatment in paddy field; conditions: 120 g/10a, paddy soil treatment just after sowing, 14 days after treatment
In short: (§4)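 Flooded paddy-soil pots (1/10000 are, N:P:K 17:17:17 fertilizer, puddled) were sown with 30 seeds per species at 0–1 cm, water kept ~3 cm in a greenhouse. Emulsifiable concentrate diluted in water was dripped in right after sowing at 120 g a.i. per 10 are. Suppression (%) came from dry weight vs untreated at 14 days.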

Scirpus juncoides [14] = assay: as above; conditions: 120 g/10a, paddy soil treatment just after sowing, 14 days after treatment
In short: as §4

Echinochloa crus-galli [15] = assay: as above; conditions: 120 g/10a, paddy soil treatment just after sowing, 14 days after treatment
In short: as §4

Monochoria vaginalis [16] = assay: as above; conditions: 120 g/10a, paddy soil treatment just after sowing, 14 days after treatment
In short: as §4

Row | Structure (SMILES) | herbicidal effect (weed suppression rate), Crabgrass (crabgrass [1]) [%] | herbicidal effect (weed suppression rate), Chenopodium album (Chenopodium album [2]) [%] | herbicidal effect (weed suppression rate), Echinochloa crus-galli (Echinochloa crus-galli [3]) [%] | herbicidal effect (weed suppression rate), Amaranthus viridis (Amaranthus viridis [4]) [%] | herbicidal effect (weed suppression rate), Crabgrass (crabgrass [5]) [%] | herbicidal effect (weed suppression rate), Chenopodium album (Chenopodium album [6]) [%] | herbicidal effect (weed suppression rate), Echinochloa crus-galli (Echinochloa crus-galli [7]) [%] | herbicidal effect (weed suppression rate), Amaranthus viridis (Amaranthus viridis [8]) [%] | weed suppression rate, Lindemia pyxidaria (Lindernia pyxidaria [9]) [%] | weed suppression rate, Scirpus juncoides (Scirpus juncoides [10]) [%] | weed suppression rate, Echinochloa crus-galli (Echinochloa crus-galli [11]) [%] | weed suppression rate, Monochoria vaginalis (Monochoria vaginalis [12]) [%] | weed suppression rate, Lindemia pyxidaria (Lindernia pyxidaria [13]) [%] | weed suppression rate, Scirpus juncoides (Scirpus juncoides [14]) [%] | weed suppression rate, Echinochloa crus-galli (Echinochloa crus-galli [15]) [%] | weed suppression rate, Monochoria vaginalis (Monochoria vaginalis [16]) [%]
1 | CC(C)N(C(=O)n1ncn(S(=O)(=O)C(C)C)c1=O)c1cccnc1F [Compound 1-90] | 90 | 70 | 90 | 50 | 100 | 90 | 100 | 90 | 90 | 90 | 100 | 90 | 90 | 90 | 100 | 80
2 | CC(C)N(C(=O)n1ncn(S(=O)(=O)C(C)C)c1=O)c1ccc(Cl)cn1 [Compound 1-93] | 90 | 0 | 90 | 0 | 90 | 40 | 90 | 80 | 100 | 90 | 100 | 90 | 100 | 90 | 90 | 80
3 | CC(C)N(C(=O)n1ncn(S(=O)(=O)C(C)C)c1=O)c1ccc(Cl)nc1Cl [Compound 1-98] | 90 | 80 | 80 | 90 | 90 | 80 | 80 | 90 | 80 | 90 | 100 | 90 | 90 | 90 | 100 | 90
4 | CCC(C)S(=O)(=O)n1cnn(C(=O)N(c2ccc(F)cc2F)C(C)C)c1=O (stereo not drawn) [Compound 1-101] | 90 | 80 | 80 | 90 | 90 | 80 | 80 | 90 | 80 | 90 | 90 | 80 | 80 | 90 | 90 | 80
5 | C=CS(=O)(=O)n1cnn(C(=O)N(c2ccc(F)cc2F)C(C)C)c1=O [Compound 1-142] | 90 | 80 | 80 | 90 | 100 | 100 | 100 | 100 | 80 | 90 | 90 | 80 | 100 | 100 | 100 | 100
6 | CC(C)N(C(=O)n1ncn(S(=O)(=O)C2CC2)c1=O)c1ccccc1F [Compound 1-169] | 90 | 80 | 80 | 90 | 90 | 80 | 80 | 90 | 80 | 80 | 100 | 90 | 90 | 90 | 100 | 90
7 | CC(C)N(C(=O)n1ncn(S(=O)(=O)C2CC2)c1=O)c1ccc(F)cc1 [Compound 1-171] | 90 | 80 | 80 | 90 | 100 | 100 | 100 | 90 | 90 | 90 | 100 | 90 | 100 | 100 | 100 | 100
8 | CC(C)N(C(=O)n1ncn(S(=O)(=O)C2CC2)c1=O)c1cccc(F)c1F [Compound 1-198] | 100 | 80 | 100 | 80 | 100 | 100 | 100 | 100 | 100 | 80 | 100 | 100 | 100 | 100 | 100 | 100
9 | CC(C)N(C(=O)n1ncn(S(=O)(=O)C2CC2)c1=O)c1c(F)cccc1F [Compound 1-200] | 100 | 70 | 100 | 80 | 100 | 40 | 100 | 40 | 80 | 100 | 100 | 90 | 100 | 100 | 100 | 80
